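Compound exposure: 48 hours, 5 concentrations, 96-well plates. Abbreviation: GI50, concentration required for 50% inhibition of growth.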 Active and inactive are the calls of the source. Cut-off read from the data, not from the text of the source: active = GI50 up to about 1.1 µM and inactive = higher.
Columns and labels:
Test in all cases: NCI tumour cell line growth inhibition, 48 h
ACHN = tested on: ACHN
MCF7 = tested on: MCF7
CAKI-1 = tested on: CAKI-1
RXF 393 = tested on: RXF 393
SF-539 = tested on: SF-539
SK-MEL-5 = tested on: SK-MEL-5
T47D = tested on: T47D
OVCAR-4 = tested on: OVCAR-4
A549 = tested on: A549
NCI/ADR-RES = tested on: NCI/ADR-RES
HL-60 = tested on: HL-60
BT-549 = tested on: BT-549
HCC 2998 = tested on: HCC 2998
SW-620 = tested on: SW-620
OVCAR-8 = tested on: OVCAR-8
M14 = tested on: M14
SF-268 = tested on: SF-268
OVCAR-5 = tested on: OVCAR-5
RPMI-8226 = tested on: RPMI-8226
MOLT-4 = tested on: MOLT-4
NCI-H226 = tested on: NCI-H226
SK-MEL-28 = tested on: SK-MEL-28
Hs-578T = tested on: Hs-578T
MDA-N = tested on: MDA-N
UO-31 = tested on: UO-31
U-251 = tested on: U-251
MDA-MB-435 = tested on: MDA-MB-435
OVCAR-3 = tested on: OVCAR-3
SK-MEL-2 = tested on: SK-MEL-2
LOX IMVI = tested on: LOX IMVI
K562 = tested on: K562
DU-145 = tested on: DU-145
NCI-H522 = tested on: NCI-H522
PC-3 = tested on: PC-3
SF-295 = tested on: SF-295
UACC-257 = tested on: UACC-257
SN12C = tested on: SN12C
786-0 = tested on: 786-0
HCT-15 = tested on: HCT-15
IGROV-1 = tested on: IGROV-1
NCI-H460 = tested on: NCI-H460
SR = tested on: SR
HT-29 = tested on: HT-29
Malme-3M = tested on: Malme-3M
EKVX = tested on: EKVX
UACC-62 = tested on: UACC-62
COLO 205 = tested on: COLO 205
HCT-116 = tested on: HCT-116
CCRF-CEM = tested on: CCRF-CEM
TK-10 = tested on: TK-10
NCI-H23 = tested on: NCI-H23
A498 = tested on: A498
HOP-62 = tested on: HOP-62
KM12 = tested on: KM12
SNB-75 = tested on: SNB-75
HOP-92 = tested on: HOP-92
MDA-MB-231 = tested on: MDA-MB-231
SNB-19 = tested on: SNB-19
SK-OV-3 = tested on: SK-OV-3

For CC(C)C[C@H](NC(=O)[C@H](CCc1ccccc1)NC(=O)c1ccc2ccccc2n1)B(O)O, the GI50 (ACHN) was < 0.01 µM (active), the GI50 (MCF7) was < 0.01 µM (active) and the GI50 (CAKI-1) was < 0.0194 µM (active). For the same compound, the GI50 (RXF 393) was < 0.01 µM (active), the GI50 (SF-539) was < 0.01 µM (active) and the GI50 (SK-MEL-5) was < 0.0136 µM (active). For the same compound, the GI50 (T47D) was < 0.01 µM (active), the GI50 (OVCAR-4) was 0.185 µM (active) and the GI50 (A549) was 0.233 µM (active). The GI50 (NCI/ADR-RES) was 0.706 µM (active), the GI50 (HL-60) was < 0.01 µM (active) and the GI50 (BT-549) was < 0.01 µM (active). For the same compound, the GI50 (HCC 2998) was 0.0292 µM (active), the GI50 (SW-620) was < 0.01 µM (active) and the GI50 (OVCAR-8) was 0.163 µM (active). For the same compound, the GI50 (M14) was < 0.0109 µM (active), the GI50 (SF-268) was 0.0571 µM (active) and the GI50 (OVCAR-5) was < 0.0268 µM (active). The GI50 (RPMI-8226) was < 0.01 µM (active), the GI50 (MOLT-4) was < 0.01 µM (active) and the GI50 (NCI-H226) was < 0.01 µM (active). For the same compound, the GI50 (SK-MEL-28) was < 0.01 µM (active), the GI50 (Hs-578T) was 0.0245 µM (active) and the GI50 (MDA-N) was < 0.01 µM (active). For the same compound, the GI50 (UO-31) was 0.0845 µM (active), the GI50 (U-251) was 0.178 µM (active) and the GI50 (MDA-MB-435) was < 0.01 µM (active). For the same compound, the GI50 (OVCAR-3) was < 0.01 µM (active), the GI50 (SK-MEL-2) was < 0.01 µM (active) and the GI50 (LOX IMVI) was 0.0144 µM (active). For the same compound, the GI50 (K562) was 0.0439 µM (active), the GI50 (DU-145) was 0.0752 µM (active) and the GI50 (NCI-H522) was < 0.0128 µM (active). For the same compound, the GI50 (PC-3) was 0.0731 µM (active), the GI50 (SF-295) was 0.053 µM (active) and the GI50 (UACC-257) was < 0.0156 µM (active). For the same compound, the GI50 (SN12C) was < 0.01 µM (active), the GI50 (786-0) was < 0.0225 µM (active) and the GI50 (HCT-15) was 0.0883 µM. The GI50 (IGROV-1) was 0.0705 µM (active), the GI50 (NCI-H460) was 0.394 µM (active) and the GI50 (SR) was < 0.0158 µM (active). The GI50 (HT-29) was < 0.0113 µM (active), the GI50 (Malme-3M) was < 0.01 µM (active) and the GI50 (EKVX) was 0.264 µM (active). The GI50 (UACC-62) was 0.0973 µM (active), the GI50 (COLO 205) was 0.043 µM (active) and the GI50 (HCT-116) was < 0.0122 µM (active). The GI50 (CCRF-CEM) was < 0.01 µM (active), the GI50 (TK-10) was < 0.01 µM (active) and the GI50 (NCI-H23) was 0.0367 µM (active). The GI50 (A498) was 0.0471 µM (active), the GI50 (HOP-62) was 0.176 µM (active) and the GI50 (KM12) was 0.0644 µM (active). The GI50 (SNB-75) was 0.0302 µM (active), the GI50 (HOP-92) was 0.0329 µM (active) and the GI50 (MDA-MB-231) was 0.134 µM (active).

O=c1c2ccccc2nc(-c2ccccc2)n1/N=C/c1ccccc1[N+](=O)[O-] was tested, and the GI50 (ACHN) was 27.8 µM (inactive), the GI50 (MCF7) was > 78.2 µM (inactive) and the GI50 (CAKI-1) was > 100 µM (inactive). The GI50 (RXF 393) was 19.3 µM (inactive), the GI50 (SF-539) was 19.9 µM (inactive) and the GI50 (SK-MEL-5) was > 75.2 µM (inactive). The GI50 (T47D) was 86.9 µM (inactive), the GI50 (OVCAR-4) was > 91.2 µM (inactive) and the GI50 (A549) was > 100 µM (inactive). The GI50 (NCI/ADR-RES) was 16.7 µM (inactive), the GI50 (HL-60) was > 100 µM (inactive) and the GI50 (BT-549) was 31.3 µM (inactive). The GI50 (HCC 2998) was > 100 µM (inactive), the GI50 (SNB-19) was 17 µM (inactive) and the GI50 (SW-620) was > 100 µM (inactive). For the same compound, the GI50 (OVCAR-8) was > 46.2 µM (inactive), the GI50 (M14) was > 100 µM (inactive) and the GI50 (SF-268) was 16.3 µM (inactive). For the same compound, the GI50 (OVCAR-5) was > 100 µM (inactive), the GI50 (RPMI-8226) was > 100 µM (inactive) and the GI50 (MOLT-4) was > 100 µM (inactive). The GI50 (NCI-H226) was 61.1 µM (inactive), the GI50 (SK-MEL-28) was > 100 µM (inactive) and the GI50 (Hs-578T) was 1.59 µM (inactive). For the same compound, the GI50 (MDA-N) was > 100 µM (inactive), the GI50 (U-251) was 16.1 µM (inactive) and the GI50 (MDA-MB-435) was > 100 µM (inactive). For the same compound, the GI50 (OVCAR-3) was > 100 µM (inactive), the GI50 (SK-MEL-2) was 74.5 µM (inactive) and the GI50 (LOX IMVI) was > 100 µM (inactive). For the same compound, the GI50 (K562) was > 100 µM (inactive), the GI50 (DU-145) was > 100 µM (inactive) and the GI50 (NCI-H522) was > 53.2 µM (inactive). The GI50 (PC-3) was > 100 µM (inactive), the GI50 (SF-295) was 22.8 µM (inactive) and the GI50 (UACC-257) was > 100 µM (inactive). The GI50 (SN12C) was > 74.8 µM (inactive), the GI50 (786-0) was 21.9 µM (inactive) and the GI50 (HCT-15) was > 100 µM. For the same compound, the GI50 (IGROV-1) was > 69.7 µM (inactive), the GI50 (NCI-H460) was > 91.2 µM (inactive) and the GI50 (SR) was > 100 µM (inactive). For the same compound, the GI50 (SK-OV-3) was 19.6 µM (inactive), the GI50 (HT-29) was > 100 µM (inactive) and the GI50 (Malme-3M) was > 100 µM (inactive). For the same compound, the GI50 (EKVX) was > 51.1 µM (inactive), the GI50 (UACC-62) was 79.6 µM (inactive) and the GI50 (COLO 205) was > 100 µM (inactive). The GI50 (HCT-116) was 40.5 µM (inactive), the GI50 (CCRF-CEM) was > 100 µM (inactive) and the GI50 (TK-10) was 28.3 µM (inactive). The GI50 (NCI-H23) was 15.3 µM (inactive), the GI50 (A498) was > 75.2 µM (inactive) and the GI50 (HOP-62) was 13.6 µM (inactive). The GI50 (KM12) was 57.4 µM (inactive), the GI50 (SNB-75) was 7.41 µM (inactive) and the GI50 (HOP-92) was 29.2 µM (inactive). The GI50 (MDA-MB-231) was 17.7 µM (inactive).

For COC(OC)C1(c2ccccc2)Oc2ccccc2C1=O (stereo not drawn), the GI50 (ACHN) was > 100 µM (inactive), the GI50 (MCF7) was > 100 µM (inactive) and the GI50 (CAKI-1) was > 100 µM (inactive). For the same compound, the GI50 (RXF 393) was > 100 µM (inactive), the GI50 (SF-539) was > 100 µM (inactive) and the GI50 (SK-MEL-5) was 65.6 µM (inactive). For the same compound, the GI50 (T47D) was > 100 µM (inactive), the GI50 (OVCAR-4) was > 100 µM (inactive) and the GI50 (A549) was > 100 µM (inactive). The GI50 (NCI/ADR-RES) was 80.7 µM (inactive), the GI50 (HL-60) was > 100 µM (inactive) and the GI50 (BT-549) was 85.9 µM (inactive). For the same compound, the GI50 (HCC 2998) was > 100 µM (inactive), the GI50 (SNB-19) was > 100 µM (inactive) and the GI50 (SW-620) was > 100 µM (inactive). The GI50 (OVCAR-8) was > 100 µM (inactive), the GI50 (M14) was > 100 µM (inactive) and the GI50 (SF-268) was > 100 µM (inactive). The GI50 (OVCAR-5) was > 100 µM (inactive), the GI50 (RPMI-8226) was > 100 µM (inactive) and the GI50 (MOLT-4) was 68.7 µM (inactive). The GI50 (NCI-H226) was > 100 µM (inactive), the GI50 (SK-MEL-28) was > 100 µM (inactive) and the GI50 (Hs-578T) was > 100 µM (inactive). The GI50 (MDA-N) was > 100 µM (inactive), the GI50 (U-251) was > 100 µM (inactive) and the GI50 (MDA-MB-435) was > 100 µM (inactive). The GI50 (OVCAR-3) was > 100 µM (inactive), the GI50 (SK-MEL-2) was > 100 µM (inactive) and the GI50 (LOX IMVI) was > 100 µM (inactive). For the same compound, the GI50 (K562) was 65.2 µM (inactive), the GI50 (DU-145) was > 100 µM (inactive) and the GI50 (NCI-H522) was > 100 µM (inactive). The GI50 (PC-3) was > 100 µM (inactive), the GI50 (SF-295) was 90.2 µM (inactive) and the GI50 (UACC-257) was > 100 µM (inactive). The GI50 (SN12C) was > 100 µM (inactive), the GI50 (786-0) was > 100 µM (inactive) and the GI50 (HCT-15) was > 100 µM. The GI50 (IGROV-1) was > 100 µM (inactive), the GI50 (NCI-H460) was > 100 µM (inactive) and the GI50 (SR) was > 100 µM (inactive). The GI50 (SK-OV-3) was > 100 µM (inactive), the GI50 (HT-29) was > 100 µM (inactive) and the GI50 (Malme-3M) was > 100 µM (inactive). For the same compound, the GI50 (EKVX) was > 100 µM (inactive), the GI50 (UACC-62) was > 100 µM (inactive) and the GI50 (COLO 205) was > 100 µM (inactive). The GI50 (HCT-116) was > 100 µM (inactive), the GI50 (CCRF-CEM) was > 100 µM (inactive) and the GI50 (TK-10) was > 100 µM (inactive). For the same compound, the GI50 (NCI-H23) was 50.1 µM (inactive), the GI50 (A498) was > 100 µM (inactive) and the GI50 (HOP-62) was > 100 µM (inactive). The GI50 (KM12) was > 100 µM (inactive), the GI50 (SNB-75) was > 100 µM (inactive) and the GI50 (HOP-92) was > 100 µM (inactive). The GI50 (MDA-MB-231) was > 100 µM (inactive).

From ChEMBL document CHEMBL1201862, “PubChem BioAssay data set” (2004)
